The values that follow come from ChEMBL document CHEMBL1137837 (Bioorg Med Chem Lett, 2004).

The term Ki denotes a dissociation constant, usually derived from enzyme kinetics or from competition with a known ligand. As a reminder, the IC50 is the concentration that gives 50% inhibition. Read a high IC50 as weaker potency. For orientation: logD means the decadic logarithm of the distribution of all forms, ionised or not, between an organic phase and buffer at a given pH.

Data set [1] has as its target Beta-2 adrenergic receptor (Homo sapiens, UniProt P07550).
Description: Binding affinity for human beta-2 adrenergic receptor
For data set [2], the species on record is Oryctolagus cuniculus. The data set can be described thus: Duration action in guinea pig.
The species entered for data set [3] is Oryctolagus cuniculus. The data set can be described thus: Concentration required to inhibit electrically induced contraction of superfused guinea-pig trachea was determined.
Data set [4] can be described thus: Partition coefficient (logD). The data set is classed as physicochemical. To be noted: octanol/water.

Sequence of Beta-2 adrenergic receptor (P07550 whole entry): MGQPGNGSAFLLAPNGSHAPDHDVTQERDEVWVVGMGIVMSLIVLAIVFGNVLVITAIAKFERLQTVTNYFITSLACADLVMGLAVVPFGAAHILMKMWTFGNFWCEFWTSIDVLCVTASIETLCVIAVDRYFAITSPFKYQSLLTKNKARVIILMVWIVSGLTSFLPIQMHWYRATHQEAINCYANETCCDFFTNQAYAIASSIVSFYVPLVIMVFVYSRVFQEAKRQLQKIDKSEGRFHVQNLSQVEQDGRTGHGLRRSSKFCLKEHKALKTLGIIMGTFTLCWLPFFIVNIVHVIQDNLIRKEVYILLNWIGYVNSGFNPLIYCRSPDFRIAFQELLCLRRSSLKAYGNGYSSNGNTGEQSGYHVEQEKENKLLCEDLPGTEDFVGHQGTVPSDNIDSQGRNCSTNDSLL

In the case of `O=CNc1cc([C@@H](O)CNCCc2cccc(OCCCOc3ccccc3)c2)ccc1O`, in data set [1], the Ki is 3.3 nM. In addition, the Duration in the data set filed under Oryctolagus cuniculus [2] came out at 5.43 h. Further, the IC50 in the data set listed under Oryctolagus cuniculus [3] stood at 164 nM. Also, the logD in data set [4] was 2.49; in data set [4] (read-out: logD), 2.

As to `O=CNc1cc([C@@H](O)CNCCc2ccc(OC3Cc4ccccc4C3)cc2)ccc1O`, the inhibitory constant (Ki) in data set [1] is 11.6 nM. The compound further yielded a 50% inhibitory concentration (IC50) in the data set listed under Oryctolagus cuniculus [3] of 251 nM. Moreover, the pH-dependent lipophilicity (logD) in data set [4] (read-out: logD) stood at 2.95.

Compound `O=CNc1cc([C@@H](O)CNCCc2ccc(OCCCCc3ccccc3)cc2)ccc1O` yielded an inhibitory constant (Ki) in data set [1] of 9.2 nM. This compound also yielded a Duration in the data set listed under Oryctolagus cuniculus [2] of 6.62 h. In the data set filed under Oryctolagus cuniculus [3], this compound yielded a half-maximal inhibitory concentration (IC50) of 71 nM. Further, the logD in data set [4] came to 2.76; in data set [4] (read-out: logD), 2.83.

In turn, `O=CNc1cc([C@@H](O)CNCCc2ccc(Oc3ccccc3)cc2)ccc1O` displayed an inhibition constant Ki in data set [1] of 35.4 nM. For the same compound, in the data set listed under Oryctolagus cuniculus [3], the IC50 turned out to be 120 nM. The logD in data set [4] (read-out: logD) amounted to 1.95.

Take `O=CNc1cc([C@@H](O)CNCCc2ccc(OCCc3ccccc3)cc2)ccc1O`: the affinity in data set [1], expressed as Ki, was 7.8 nM. This compound also gave an IC50 in the data set listed under Oryctolagus cuniculus [3] of 1.1 nM. In addition, the pH-dependent lipophilicity (logD) in data set [4] (read-out: logD) was found to be 1.67.

For the compound `O=CNc1cc([C@@H](O)CNCCc2ccc(OCCCc3ccccc3)cc2)ccc1O`, the inhibition constant Ki in data set [1] came to 5.9 nM. This compound returned a half-inhibitory concentration (IC50) in the data set filed under Oryctolagus cuniculus [3] of 38 nM. In addition, the logD in data set [4] (read-out: logD) stood at 2.35.

With `O=CNc1cc([C@@H](O)CNCCc2cccc(OCCCCc3ccccc3)c2)ccc1O`, in data set [1], the affinity corresponds to a Ki of 8.5 nM. The midpoint of inhibition in the data set filed under Oryctolagus cuniculus [3], the IC50, lay at 114 nM. For the same compound, the logD in data set [4] (read-out: logD) is 2.83.

`OCc1cc(C(O)CNCCCCCCOCCCCc2ccccc2)ccc1O` (stereo unspecified) [SALMETEROL] showed a logD in data set [4] of 1.24.
